Columns and labels:
[1] = system: human patient-derived primary hepatocytes; test: AAV2/6 ZFN transduction of primary hepatocytes with PDGFR inhibitor; % indels; format: cell-based; conditions: 9 μM
Experimental: For human hepatocytes, 48-well cell culture dishes were purchased pre-coated with collagen (Life Technologies). Plates were incubated for 1 hour at 37° C. Thawing/plating media was prepared by combining 18 mL InVitroGRO CP medium (BioreclamationIVT) and 400 μL Torpedo antibiotic mix (Celsis In Vitro Technologies). Once the plates were prepared, the plate-able human hepatocytes (Lot# AKB), were transferred from the liquid nitrogen vapor phase directly into the 37° C. water bath and thawed under gently stirring. The cells were transferred directly into a 50 ml conical tube containing 5 mL of pre-warmed thawing/plating medium. To retrieve all the cells, the vial was washed with 1 mL of thawing/plating medium, which was added to the cells. Following resuspension of the cells, a small aliquot (20 μL) was removed to perform a cell count and to determine cell viability using trypan blue solution (1:5; Corning, Cat#25-900-C1). The cells were then centrifuged at 75×g for 5 minutes, the supernatant was removed and the cells were resuspended at 1e6 cells/mL. Cells were seeded at 3e5 cells/well in the coated 48-well plates. Cells were then incubated in a 37° C./5% CO2 incubator.
One day after the cells were plated, cells were switched to HCM maintenance medium (Lonza, HBM and HCM SingleQuots). […] Genomic DNA was extracted and analyzed by deep sequencing (MiSeq) at the albumin locus.

[2] = system: Hep3B (human hepatoma cell line) cells; test: AAV2/6 delivery of albumin ZFNs to Hep3B cells after growth factor receptor inhibitor pre-incubation; % indels by deep sequencing; format: cell-based; conditions: serum-free pre-incubation, AAV2/6 albumin ZFNs MOI 3e4 vg/cell
Experimental: In order to test the relative contribution of co-receptors to AAV transduction, inhibitors against epidermal growth factor receptor (EGFR), hepatocyte growth factor receptor (HGFR), fibroblast growth factor receptor (FGFR) and platelet-derived growth factor receptor (PDGFR) were used prior to in vitro AAV2/6 transduction experiments in Hep3B (human hepatoma cell line) cells using zinc-finger nucleases (ZFNs) targeting the human albumin locus. Hep3B cells were plated at a density of 1×10^5 cells per well in a 48-well tissue culture plate in 300 μL complete growth media the day before transduction with AAV2/6. On the morning of transduction, the cells were washed three times with serum-free media and incubated in the serum-free media for three hours. Growth factor receptor inhibitors were added to the wells and incubated for one hour. AAV2/6 particles to deliver ZFNs targeted to the albumin locus were then added to the wells. After three hours, serum was added to the wells to a final concentration of 10%. The cells were harvested on day 4 post-transduction. Genomic DNA was extracted and analyzed by deep sequencing (MiSeq) at the albumin locus. The growth factor receptor inhibitors used are shown below in Table 1, and they were used in the experiment in the concentrations indicated in FIG. 3, where each inhibitor is labeled by its target.

| SMILES | indels detected as compared to no inhibitor [1] | AAV transduction compared to control (% indels) [2] |
| --- | --- | --- |
| CC1(COc2ccc3c(c2)ncn3-c2ccc3cccc(N4CCC(N)CC4)c3n2)COC1 [Crenolanib] | large increase | – |
| COc1cc2ncnc(Nc3ccc(F)c(Cl)c3)c2cc1OCCCN1CCOCC1 [EGFRi, Gefitinib] | – | mild inhibition |
| CCN1CCN(c2ccc(Nc3cc(N(C)C(=O)Nc4c(Cl)c(OC)cc(OC)c4Cl)ncn3)cc2)CC1 [FGFRi, BGJ398] | – | mild stimulation |
| Cc1[nH]c(/C=C2\C(=O)Nc3ccc(S(=O)(=O)N(C)c4cccc(Cl)c4)cc32)c(C)c1C(=O)N1CCN(C)CC1 [HGFRi, SU11274] | – | mild stimulation |

From patent US10450585B2, “Delivery methods and compositions for nuclease-mediated genome engineering” (Sangamo Therapeutics, Inc., priority 2015, dated 2019)
